These are literature values, as cited in patent US11311853B2, “Process for the preparation of double crosslinked core-shell polymeric nanoparticles for multimodal imaging and theranostic applications” (FONDAZIONE ISTITUTO ITALIANO DI TECNOLOGIA, priority 2017, dated 2022).

Structures are written as SMILES.

The conditions of this series: commercial Gd-DTPA.

Turning to `O=C([O-])CN(CCN(CC(=O)[O-])CC(=O)O)CCN(CC(=O)[O-])CC(=O)O.[Gd+3]` [Gd-DTPA, Gd-diethylenetriaminepentaacetic acid], the relaxivity in MRI is 4 mM⁻¹ s⁻¹.
